Data reported in ChEMBL document CHEMBL2311518 (J Med Chem, 2013).
Several values for one entry are separate records, joined by “and”; a condition that tells them apart may be missing. Identical values can stand only once. Activity calls are given as the source filed them. The rule behind the calls is not given here.

Experiments:
[1] = target: Neuronal acetylcholine receptor; alpha4/beta2 (Rattus norvegicus, UniProt P09483+P12390); experiment: biochemical
Description: Displacement of [3H]epibatidine from rat recombinant alpha4beta2 nAChR expressed in HEK293 cells after 4 hrs by scintillation counting analysis

[2] = target: T1, Neuronal acetylcholine receptor; alpha3/beta4 (Rattus norvegicus, UniProt P04757+P12392); experiment: biochemical
T1 sequence (P04757 whole entry): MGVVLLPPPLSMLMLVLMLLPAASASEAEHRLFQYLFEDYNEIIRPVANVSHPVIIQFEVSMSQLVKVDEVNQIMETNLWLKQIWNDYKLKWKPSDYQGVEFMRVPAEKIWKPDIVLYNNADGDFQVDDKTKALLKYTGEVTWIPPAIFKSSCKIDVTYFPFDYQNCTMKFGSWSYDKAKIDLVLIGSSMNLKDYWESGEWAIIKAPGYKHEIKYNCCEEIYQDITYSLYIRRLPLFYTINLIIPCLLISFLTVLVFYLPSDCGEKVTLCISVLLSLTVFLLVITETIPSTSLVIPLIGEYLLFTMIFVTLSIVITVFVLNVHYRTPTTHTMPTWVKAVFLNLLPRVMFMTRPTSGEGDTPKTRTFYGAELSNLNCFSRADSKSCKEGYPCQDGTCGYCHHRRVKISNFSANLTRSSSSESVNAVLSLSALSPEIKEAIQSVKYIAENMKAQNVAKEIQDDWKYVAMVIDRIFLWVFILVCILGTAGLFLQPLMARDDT
T1 sequence (P12392 whole entry): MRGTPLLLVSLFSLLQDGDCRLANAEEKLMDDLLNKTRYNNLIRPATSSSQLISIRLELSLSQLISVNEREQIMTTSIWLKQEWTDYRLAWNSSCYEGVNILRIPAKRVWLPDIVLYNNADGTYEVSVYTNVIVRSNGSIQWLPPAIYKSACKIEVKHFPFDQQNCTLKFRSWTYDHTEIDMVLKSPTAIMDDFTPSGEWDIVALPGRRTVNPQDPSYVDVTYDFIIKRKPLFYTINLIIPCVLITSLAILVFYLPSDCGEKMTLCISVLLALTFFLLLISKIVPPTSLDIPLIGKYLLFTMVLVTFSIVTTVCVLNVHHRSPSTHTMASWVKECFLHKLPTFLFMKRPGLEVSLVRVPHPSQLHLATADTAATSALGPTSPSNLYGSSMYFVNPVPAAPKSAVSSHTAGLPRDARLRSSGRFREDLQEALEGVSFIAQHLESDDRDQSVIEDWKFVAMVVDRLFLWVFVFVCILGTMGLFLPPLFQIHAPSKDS
Description: Displacement of [3H]epibatidine from rat recombinant alpha3beta4 nAChR expressed in HEK293 cells after 4 hrs by scintillation counting analysis

[3] = target: Neuronal acetylcholine receptor; alpha4/beta4 (Rattus norvegicus, UniProt P09483+P12392); experiment: biochemical
Sequence of Neuronal acetylcholine receptor; alpha4/beta4 (P09483 whole entry): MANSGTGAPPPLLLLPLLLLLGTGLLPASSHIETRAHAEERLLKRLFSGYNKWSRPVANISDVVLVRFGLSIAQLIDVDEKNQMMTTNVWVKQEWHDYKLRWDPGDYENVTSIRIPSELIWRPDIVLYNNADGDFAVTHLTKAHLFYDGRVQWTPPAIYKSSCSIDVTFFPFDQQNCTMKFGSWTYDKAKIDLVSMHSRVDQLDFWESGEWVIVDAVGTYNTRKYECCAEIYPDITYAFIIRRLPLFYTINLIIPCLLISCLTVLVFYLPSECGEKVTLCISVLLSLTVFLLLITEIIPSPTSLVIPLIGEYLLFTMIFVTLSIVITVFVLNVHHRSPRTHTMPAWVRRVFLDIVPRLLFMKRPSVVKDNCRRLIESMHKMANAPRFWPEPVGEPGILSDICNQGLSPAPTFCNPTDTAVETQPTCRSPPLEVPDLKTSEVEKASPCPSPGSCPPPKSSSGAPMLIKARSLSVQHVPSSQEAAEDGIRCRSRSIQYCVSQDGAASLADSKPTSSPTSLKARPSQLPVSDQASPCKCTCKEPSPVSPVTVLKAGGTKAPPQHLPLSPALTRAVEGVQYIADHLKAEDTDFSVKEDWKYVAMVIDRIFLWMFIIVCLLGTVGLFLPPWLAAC
Sequence of Neuronal acetylcholine receptor; alpha4/beta4 (P12392 whole entry): as the sequence (P12392 whole entry) above
Description: Displacement of [3H]epibatidine from rat recombinant alpha4beta4 nAChR expressed in HEK293 cells after 4 hrs by scintillation counting analysis

[4] = target: T2, Neuronal acetylcholine receptor; alpha4/beta2 (Homo sapiens, UniProt P17787+P43681)
T2 sequence (P17787 whole entry): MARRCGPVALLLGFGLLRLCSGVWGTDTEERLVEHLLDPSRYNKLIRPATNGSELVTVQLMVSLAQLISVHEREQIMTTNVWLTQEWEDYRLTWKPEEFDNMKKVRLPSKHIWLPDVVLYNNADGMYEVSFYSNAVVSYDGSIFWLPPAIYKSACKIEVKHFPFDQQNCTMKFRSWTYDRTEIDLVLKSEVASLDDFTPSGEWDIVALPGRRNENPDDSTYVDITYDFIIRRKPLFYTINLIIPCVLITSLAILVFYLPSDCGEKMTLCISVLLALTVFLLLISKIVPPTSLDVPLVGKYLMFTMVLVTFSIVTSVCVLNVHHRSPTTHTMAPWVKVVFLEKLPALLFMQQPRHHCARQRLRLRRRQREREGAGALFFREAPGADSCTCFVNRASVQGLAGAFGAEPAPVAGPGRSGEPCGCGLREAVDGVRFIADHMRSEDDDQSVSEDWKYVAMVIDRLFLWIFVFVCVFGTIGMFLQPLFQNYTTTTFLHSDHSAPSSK
T2 sequence (P43681 whole entry): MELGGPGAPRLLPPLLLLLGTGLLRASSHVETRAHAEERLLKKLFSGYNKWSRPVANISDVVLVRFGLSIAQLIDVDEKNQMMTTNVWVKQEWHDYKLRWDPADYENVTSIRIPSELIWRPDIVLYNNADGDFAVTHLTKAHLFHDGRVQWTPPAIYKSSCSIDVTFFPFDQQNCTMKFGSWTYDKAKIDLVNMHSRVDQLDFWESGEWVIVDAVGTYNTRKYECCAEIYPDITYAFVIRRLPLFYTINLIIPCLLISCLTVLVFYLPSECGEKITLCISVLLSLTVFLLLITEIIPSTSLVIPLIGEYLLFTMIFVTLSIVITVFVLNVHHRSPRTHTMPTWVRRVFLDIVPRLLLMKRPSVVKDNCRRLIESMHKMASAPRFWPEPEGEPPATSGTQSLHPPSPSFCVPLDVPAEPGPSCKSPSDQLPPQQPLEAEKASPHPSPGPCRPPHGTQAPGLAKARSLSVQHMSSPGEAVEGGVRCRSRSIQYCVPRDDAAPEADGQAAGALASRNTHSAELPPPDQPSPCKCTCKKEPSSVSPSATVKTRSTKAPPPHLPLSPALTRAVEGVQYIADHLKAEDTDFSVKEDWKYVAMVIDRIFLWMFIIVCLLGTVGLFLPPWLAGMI
Description: Agonist activity at human 3:2 alpha4beta2 nAChR expressed in Xenopus laevis oocytes after 1 min by two electrode voltage clamp technique

[5] = target: T2, Neuronal acetylcholine receptor; alpha4/beta2; remark: listed apart in the source
Description: Partial agonist activity at human 2:3 alpha4beta2 nAChR expressed in Xenopus laevis oocytes after 1 min by two electrode voltage clamp technique

[6] = target: T1, Neuronal acetylcholine receptor; alpha3/beta4
Description: Agonist activity at rat alpha3beta4 nAChR expressed in HEK293 cells after 30 mins by FLIPR membrane potential blue assay

[7] = target: Acetylcholine-binding protein (Lymnaea stagnalis, UniProt P58154); details: hek293
Sequence of Acetylcholine-binding protein (P58154 20-229 limits assumed): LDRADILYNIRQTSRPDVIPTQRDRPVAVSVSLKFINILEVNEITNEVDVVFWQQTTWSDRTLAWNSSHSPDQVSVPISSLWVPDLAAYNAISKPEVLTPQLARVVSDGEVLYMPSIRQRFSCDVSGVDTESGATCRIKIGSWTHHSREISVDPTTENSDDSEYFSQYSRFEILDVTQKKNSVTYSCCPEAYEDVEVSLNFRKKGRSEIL
Description: Displacement of [3H]epibatidine from Lymnaea stagnalis AChBP linked to ion channel portion of 5-HT3A receptor expressed in HEK293 cells after 4 hrs by scintillation counting analysis

[8] = target: Neuronal acetylcholine receptor subunit alpha-7 (Rattus norvegicus, UniProt Q05941); details: tsa-201
Sequence of Neuronal acetylcholine receptor subunit alpha-7 (Q05941 23-502 limits assumed): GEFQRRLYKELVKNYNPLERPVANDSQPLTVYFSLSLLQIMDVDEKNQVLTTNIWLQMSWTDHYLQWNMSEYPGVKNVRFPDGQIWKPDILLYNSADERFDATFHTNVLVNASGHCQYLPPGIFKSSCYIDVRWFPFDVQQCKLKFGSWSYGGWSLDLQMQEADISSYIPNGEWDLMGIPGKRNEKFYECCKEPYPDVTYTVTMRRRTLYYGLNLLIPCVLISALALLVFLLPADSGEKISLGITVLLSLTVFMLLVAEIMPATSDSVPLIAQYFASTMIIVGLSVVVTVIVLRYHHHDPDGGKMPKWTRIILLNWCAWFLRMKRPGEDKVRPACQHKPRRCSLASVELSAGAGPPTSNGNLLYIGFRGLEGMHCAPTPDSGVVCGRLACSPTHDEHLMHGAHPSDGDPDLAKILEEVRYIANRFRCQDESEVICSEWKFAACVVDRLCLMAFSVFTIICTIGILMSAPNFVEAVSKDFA
Description: Displacement of [3H]MLA from rat nAChR alpha7 linked to ion channel portion of 5-HT3A receptor expressed in human tsA-201 cells after 2.5 hrs by scintillation counting analysis

[9] = target: Neuronal acetylcholine receptor; alpha3/beta4 (Rattus norvegicus) (UniProt P04757+P12392); experiment: Modulation of rat alpha3beta4 nAChR expressed in HEK293 cells up to 1000 uM after 30 mins by FLIPR membrane potential blue assay; format: cell-based

Sequence of Neuronal acetylcholine receptor; alpha4/beta2 (Rattus norvegicus, UniProt P09483+P12390) (P09483 whole entry): as the sequence (P09483 whole entry) above
Sequence of Neuronal acetylcholine receptor; alpha4/beta2 (Rattus norvegicus, UniProt P09483+P12390) (P12390 whole entry): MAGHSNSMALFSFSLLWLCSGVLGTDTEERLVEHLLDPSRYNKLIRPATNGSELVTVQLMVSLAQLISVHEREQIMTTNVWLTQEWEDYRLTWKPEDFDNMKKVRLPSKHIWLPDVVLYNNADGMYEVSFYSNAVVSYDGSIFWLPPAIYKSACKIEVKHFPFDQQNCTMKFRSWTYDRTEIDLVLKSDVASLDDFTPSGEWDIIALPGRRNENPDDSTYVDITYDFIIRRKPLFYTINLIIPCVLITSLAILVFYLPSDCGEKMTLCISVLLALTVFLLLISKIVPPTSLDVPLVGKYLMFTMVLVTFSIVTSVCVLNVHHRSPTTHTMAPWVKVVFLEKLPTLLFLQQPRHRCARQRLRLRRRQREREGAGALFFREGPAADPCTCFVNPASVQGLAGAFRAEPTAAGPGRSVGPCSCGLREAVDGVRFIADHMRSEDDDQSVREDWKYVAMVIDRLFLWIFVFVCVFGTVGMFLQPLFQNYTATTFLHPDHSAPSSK

| SMILES | Ki [1] [µM] | Ki [2] [µM] | Ki [3] [µM] | EC50 [4] | EC50 [5] [µM] | EC50 [6] [µM] | Ki [7] [µM] | pKi [7] | Ki [8] [µM] | pKi [8] | Activity [9] |
| --- | --- | --- | --- | --- | --- | --- | --- | --- | --- | --- | --- |
| C[C@H](CCOn1cccn1)N(C)C | 0.018 | 8.1 | 11 | – | – | – | – | – | – | – | – |
| C[C@H](CCOC(=O)N(C)C)N(C)C | 0.02 | 0.42 | 0.15 | 15.8 µM and 14 µM | 0.72 | 11 | 0.079 | 7.1 | > 1000 | < 3 | – |
| C[C@H](CCOc1nccs1)N(C)C | 0.013 | 4.7 | 1.8 | – | – | – | – | – | – | – | – |
| C[C@H](CCOc1cnccn1)N(C)C | 0.24 | 42 | 8.3 | – | – | – | – | – | – | – | – |
| C[C@H](CCOc1nc(Br)cn1C)N(C)C | 0.12 | 300 | 50 | – | – | – | – | – | 1000 | 3 | – |
| C[C@H](CCOc1cccnc1)N(C)C | 0.03 | 4.9 | 8.3 | – | – | – | – | – | – | – | – |
| Cc1cn(C)c(OCC[C@@H](C)N(C)C)n1 | 0.28 | 24 | 50 | 34 µM | 19 | – | 1.5 | 5.82 | > 1000 | < 3 | inactive |
